In brackets after ≈: the same amount, converted by molar mass. Where a name gives a salt, the structure may show the parent alone.
Columns and labels:
Type in all cases: physicochemical
pKa determination = assay: pKa determination
Method: (§1) Solubility Study: Compound 1 free base pKa was determined to be 5.14. […] Solubility in the preclinical formulation, 0.5% CMC/0.25% Tween 80, was determined to be 0.18 mg/ml at pH 8.1.

[1] = Solution and suspension stability; conditions: 37° C.
Method: The solution stability of Compound 1 free base in water, SGF (pH 1.3), SIF (pH 7.5), and 0.1N NaOH with and without light protection at 37° C. was tested.

[2] = Tablet dissolution in pH 2 phosphate buffer and pH 5 phosphate buffer with 0.1% sodium laureth sulfate; conditions: tablets, pH 5 phosphate buffer and 0.1% sodium laureth sulfate
[3] = Solubility study (water, SGF, SIF, preclinical vehicle, bio-relevant media); conditions: for Solubility, Concentration: at 24 hours
Method: as §1

[4] = Solid state chemical and physical stability of free base monohydrate
Method: Chemical Stability Study: Solid state stability of Compound 1 free base monohydrate was evaluated at 80° C. for 2 weeks and 40° C./75% RH, 50° C./75% RH and 60° C. for up to 5 weeks.
This dehydrate form converted back to monohydrate immediately when samples were exposed to room temperature and RH>30%. If RH is in the range of 5-30%, the dehydrate form may take 1-3 days to convert back to monohydrate.

[5] = Dissolution of drug in capsule in 0.01N HCl and 0.001N HCl at 37° C.; conditions: for Compound 1 released: 125 mg capsule, 37° C., 60 minutes
Method: To assess the feasibility of using Compound 1 in a capsule to support FIH study, a dissolution study with a capsule containing 125 mg Compound 1 free base monohydrate was performed in the media of 0.01N HCl and 0.001N HCl at 37° C. Capsule shell shrinkage was observed. […] Blend in capsule or other formulation approaches may be necessary.
A dissolution study for citrate salt in a capsule in 0.01N HCl was also carried out.

[6] = Bulk and tap density and flow properties (Carr's Index, Hausner's Ratio)
Method: Needle-like particle shapes have poor powder flow and low densities. […] Reduced drug loadings (dilution of the poor flow component) improved flow characteristics of the resultant blend.
The 5 formulations covered drug loadings of 1.8-23.0% and 1-25 mg strengths. The bulk and tap densities for each formulation are included in Table 30.
Flow property scales for Carr's (Compressibility) Index and Hausner's Ratio are described in Table 37. The flow of the blends was assessed as very poor to passible.

[7] = Solubility of Compound 1 citrate in pH 6.5 phosphate buffer with SLS
Method: Solubility of Compound 1 was determined in various percentages of sodium lauryl sulfate (SLS). 0.03% SLS was selected as the media for dissolution condition 3. Samples were filtered using a 0.2 μm nylon syringe filter, and analyzed by UPLC-UV utilizing the method parameters listed in Table 9.

For `C[C@]1(C(N)=O)CC[C@@H](n2c(Nc3c(Cl)cc(Cl)cc3Cl)nc3cnc(N[C@@H]4CCOC[C@H]4F)nc32)CC1` (relative stereo) [Compound 1 free base, cis-4-[2-{[(3S,4R)-3-fluorooxan-4-yl]amino}-8-(2,4,6-trichloroanilino)-9H-purin-9-yl]-1-methylcyclohexane-1-carboxamide], the pKa (pKa determination) was 5.14, the “solution stability, remaining” value ([1]; 0.1N NaOH without light protection, day 1) was 88% and the “solution stability, remaining” value ([1]; 0.1N NaOH without light protection, day 4) was 61%. The “solution stability, remaining” value ([1]; water, SGF (pH 1.3), SIF (pH 7.5), 0.1N NaOH, 4 days, all except 0.1N NaOH without light protection) was over 95%.

With `C[C@]1(C(N)=O)CC[C@@H](n2c(Nc3c(Cl)cc(Cl)cc3Cl)nc3cnc(N[C@@H]4CCOC[C@H]4F)nc32)CC1` (relative stereo) [HCl salt of Compound 1, cis-4-[2-{[(3S,4R)-3-fluorooxan-4-yl]amino}-8-(2,4,6-trichloroanilino)-9H-purin-9-yl]-1-methylcyclohexane-1-carboxamide] the “dissolution compared with free base and citrate salt” value [2] was “higher dissolution”.

For `C[C@]1(C(N)=O)CC[C@@H](n2c(Nc3c(Cl)cc(Cl)cc3Cl)nc3cnc(N[C@@H]4CCOC[C@H]4F)nc32)CC1` (relative stereo) [Compound 1 free base monohydrate, cis-4-[2-{[(3S,4R)-3-fluorooxan-4-yl]amino}-8-(2,4,6-trichloroanilino)-9H-purin-9-yl]-1-methylcyclohexane-1-carboxamide], the “Solubility, Concentration” value ([3]; FaSSGF) was 2810 µg/mL, the “Solubility, Concentration” value ([3]; FaSSIF) was 260 µg/mL and the “Solubility, Concentration” value ([3]; FeSSGF) was 4 µg/mL. For the same molecule, the “Solubility, Concentration” value ([3]; FeSSIF) was 2070 µg/mL, the “pH @ 24 hr” value ([3]; solubility sample in FaSSGF) was 1.84 and the “pH @ 24 hr” value ([3]; solubility sample in FaSSIF) was 6.48. For the same molecule, the “pH @ 24 hr” value ([3]; solubility sample in FeSSGF) was 6.31, the “pH @ 24 hr” value ([3]; solubility sample in FeSSIF) was 4.94 and the “solid state chemical stability” value ([4]; 80° C. for 2 weeks, 40° C./75% RH, 50° C./75% RH and 60° C. up to 5 weeks) was “chemically relatively stable”. For the same molecule, the “time for the dehydrate form to convert back to monohydrate” value ([4]; RH in the range of 5-30%) was 1 to 3 days, the physical stability ([4]; heated at 60 and 80° C.) was “lost water and converted to a dehydrate form” and the “Compound 1 released” value ([5]; 0.001N HCl) was 10%. For the same molecule, the “Compound 1 released” value ([5]; 0.01N HCl) was “About 80%”.

With `C[C@]1(C(N)=O)CC[C@@H](n2c(Nc3c(Cl)cc(Cl)cc3Cl)nc3cnc(N[C@@H]4CCOC[C@H]4F)nc32)CC1` [Compound 1, cis-4-[2-{[(3S,4R)-3-fluorooxan-4-yl]amino}-8-(2,4,6-trichloroanilino)-9H-purin-9-yl]-1-methylcyclohexane-1-carboxamide] the pKa (pKa determination) was about 5.1, the solubility ([3]; 0.5% CMC/0.25% Tween 80 (preclinical formulation), aqueous with cosolvent or surfactant or cyclodextrin, preclinical formulation 0.5% CMC/0.25% Tween 80, pH 8.1, read-out: solubility) was 180 µg/mL (≈ 315 µM) and the solubility ([3]; pH 4.5, aqueous buffer, read-out: solubility) was about 250 µg/mL (≈ 438 µM). The solubility ([3]; simulated gastric fluid (SGF), simulated gastric fluid, simulated gastric fluids (SGF) (pH 1.9), read-out: solubility) was 3500 µg/mL (≈ 6130 µM), the solubility ([3]; simulated gastric fluid, low pH (0.1 N HCl), read-out: solubility) was about 1700 µg/mL (≈ 2980 µM) and the solubility ([3]; simulated intestinal fluid (SIF), pH 7.3, fassgf or other biorelevant, read-out: solubility) was 2 µg/mL (≈ 3.5 µM). For the same molecule, the solubility ([3]; simulated intestinal fluids (SIF) (pH 7.3)) was 2 µg/mL (≈ 3.5 µM), the solubility ([3]; water (pH 8.1), read-out: solubility) was 3 µg/mL (≈ 5.26 µM) and the “Bulk Density” value [6] was 0.2 g/mL. The “Tap Density” value [6] was 0.38 g/mL.

`C[C@]1(C(N)=O)CC[C@@H](n2c(Nc3c(Cl)cc(Cl)cc3Cl)nc3cnc(N[C@@H]4CCOC[C@H]4F)nc32)CC1` (relative stereo) [Compound 1 citrate, cis-4-[2-{[(3S,4R)-3-fluorooxan-4-yl]amino}-8-(2,4,6-trichloroanilino)-9H-purin-9-yl]-1-methylcyclohexane-1-carboxamide] showed a solubility ([7]; 0.01% SLS) of 0.000 mg salt/mL, a solubility ([7]; 0.02% SLS) of 0.001 mg salt/mL and a solubility ([7]; 0.03% SLS) of 0.054 mg salt/mL. For the same molecule, the solubility ([7]; 0.05% SLS) was 0.336 mg salt/mL, the solubility ([7]; 0.1% SLS) was 0.807 mg salt/mL and the “dissolution profile compared to freebase monohydrate” value ([5]; capsule in 0.01N HCl) was “better dissolution profile”.
